Data: US20060069132A1, “Azolecarboxamide herbicides” (priority 2004, published 2006)

Assays:
woolly cupgrass = experiment: Test C pre-/postemergence herbicide test; assay type: in vivo, Eriochloa villosa
Summary of the method: (§1)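 Emerged plants at the 1- to 4-leaf stage (2–18 cm), or freshly planted seeds, received test chemicals in a non-phytotoxic solvent mixture with surfactant. Response was visually scored against controls after 12 to 14 days in the greenhouse, on a 0 (no effect) to 100 (complete control) scale.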

rice = experiment: Test B pre-/postemergence herbicide test; assay type: in vivo, Oryza sativa; conditions: for Rice plant response rating (0 to 100 scale) / Plant response rating, Rice: preemergence
Summary of the method: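 Pre: seeds sown, then sprayed. Post: 1–4-leaf plants (2–18 cm) sprayed at the same time. Paddy: flooded, treated at 2-leaf stage. Formulation: non-phytotoxic solvent with surfactant. Greenhouse 13–15 days; visual 0–100 score relative to controls.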

Surinam grass = experiment: Test C pre-/postemergence herbicide test; assay type: in vivo, Urochloa decumbens; conditions: for Surinam Grass plant response rating: Preemergence
Summary of the method: as §1

johnsongrass = experiment: Test C pre-/postemergence herbicide test; assay type: in vivo, Sorghum halepense
Summary of the method: as §1

eastern black nightshade = experiment: Test C pre-/postemergence herbicide test; assay type: in vivo, Solanum ptycanthum; conditions: for Nightshade plant response rating: Preemergence, scale 0 to 100, 0 no effect, 100 complete control
Summary of the method: as §1

goosegrass = experiment: Test C pre-/postemergence herbicide test; assay type: in vivo, Eleusine indica; conditions: for Goosegrass plant response rating: Preemergence
Summary of the method: as §1

[1] = test system: common (oilseed) sunflower; experiment: Test C pre-/postemergence herbicide test; assay type: in vivo, Helianthus annuus; conditions: for Sunflower plant response rating: Preemergence, scale 0 to 100, 0 no effect, 100 complete control
Summary of the method: as §1

soybean = experiment: Test C pre-/postemergence herbicide test; assay type: in vivo, Glycine max
Summary of the method: as §1

[2] = 62 g ai/ha, preemergence, scale 0 to 100
[3] = 125 g ai/ha, scale 0 (no effect) to 100 (complete control), visual, 12 to 14 days, preemergence
[4] = 250 g ai/ha, scale 0-100, preemergence
[5] = 500 g ai/ha, scale 0 to 100 (0 no effect, 100 complete control), visual, 12 to 14 days, preemergence
[6] = 125 g ai/ha, 0 = no effect, 100 = complete control
[7] = 500 g ai/ha, visual rating, 0 = no effect, 100 = complete control
[8] = 250 g ai/ha, scale 0 to 100 (0 no effect, 100 complete control), visual, 12 to 14 days, preemergence
[9] = Postemergence, 500 g ai/ha, scale 0 to 100
[10] = Postemergence, 125 g ai/ha, scale 0 to 100, 0 no effect, 100 complete control
[11] = Postemergence, 250 g ai/ha, scale 0 to 100, 0 no effect, 100 complete control
[12] = Preemergence, 500 g ai/ha, scale 0 to 100, 0 no effect, 100 complete control
[13] = postemergence, 62 g ai/ha, scale 0 to 100
[14] = 125 g ai/ha, 0 to 100 scale, 0 is no effect, 100 is complete control
[15] = 500 g ai/ha, scale 0 to 100, 0 no effect, 100 complete control

CCn1nc(C(C)(C)C)cc1C(=S)Nc1cc(C(=S)N(C)C)ccc1F [Compound 305]
90: Plant response rating, Johnsongrass (johnsongrass; [3]) | Plant response rating, Nightshade (eastern black nightshade; [3]) | Plant response rating, Soybean (soybean; [4])
60: Plant response rating, Cupgrass, Woolly (woolly cupgrass; [3]) | Plant response rating, Cupgrass, Woolly (woolly cupgrass; [4]) | Plant response rating, Surinam Grass (Surinam grass; [4]) | Plant response rating, Surinam Grass (Surinam grass; [5]) | Plant response rating, Nightshade (eastern black nightshade; [2])
0: Plant response rating, Sunflower [1, 2] | Plant response rating, Sunflower [1, 4] | Plant response rating, Soybean (soybean; [2])
65: Plant response rating, Johnsongrass (johnsongrass; [2])
100: Plant response rating, Nightshade (eastern black nightshade; [4]) | Plant response rating, Nightshade (eastern black nightshade; [5]) | Plant response rating, Soybean (soybean; [5])
70: Plant response rating, Cupgrass, Woolly (woolly cupgrass; [5]) | Rice plant response rating (0 to 100 scale) (rice; [6])
80: Plant response rating, Rice (rice; [7]) | Plant response rating, Goosegrass (goosegrass; [2])
95: Plant response rating, Johnsongrass (johnsongrass; [4]) | Plant response rating, Johnsongrass (johnsongrass; [5]) | Plant response rating, Goosegrass (goosegrass; [4]) | Plant response rating, Goosegrass (goosegrass; [5])
50: Plant response rating, Surinam Grass (Surinam grass; [2]) | Plant response rating, Sunflower [1, 5]
85: Plant response rating, Goosegrass (goosegrass; [3])
20: Plant response rating, Cupgrass, Woolly (woolly cupgrass; [2])

CCn1nc(C(C)(C)C)cc1C(=O)Nc1cc(C(=S)N(C)C)ccc1F [Compound 294]
70: Plant response rating, Soybean (soybean; [2])
100: Plant response rating, Rice (rice; [7]) | Plant response rating, Surinam Grass (Surinam grass; [4]) | Plant response rating, Surinam Grass (Surinam grass; [5]) | Plant response rating, Johnsongrass (johnsongrass; [3]) | Plant response rating, Johnsongrass (johnsongrass; [4]) | Plant response rating, Johnsongrass (johnsongrass; [5]) | Plant response rating, Nightshade (eastern black nightshade; [2]) | Plant response rating, Nightshade (eastern black nightshade; [3]) | Plant response rating, Nightshade (eastern black nightshade; [4]) | Plant response rating, Nightshade (eastern black nightshade; [5]) | Plant response rating, Goosegrass (goosegrass; [5]) | Plant response rating, Sunflower [1, 4] | Plant response rating, Sunflower [1, 5] | Plant response rating, Soybean (soybean; [4]) | Plant response rating, Soybean (soybean; [5])
80: Plant response rating, Cupgrass, Woolly (woolly cupgrass; [4]) | Plant response rating, Johnsongrass (johnsongrass; [2]) | Plant response rating, Goosegrass (goosegrass; [2]) | Plant response rating, Goosegrass (goosegrass; [3])
85: Plant response rating, Cupgrass, Woolly (woolly cupgrass; [5]) | Plant response rating, Surinam Grass (Surinam grass; [2]) | Plant response rating, Goosegrass (goosegrass; [4])
75: Plant response rating, Cupgrass, Woolly (woolly cupgrass; [3])
90: Rice plant response rating (0 to 100 scale) (rice; [6])
30: Plant response rating, Sunflower [1, 2]
55: Plant response rating, Cupgrass, Woolly (woolly cupgrass; [2])

C#CCn1nc(C(C)(C)C)cc1C(=O)Nc1cccc(C(=O)NCC)c1 [Compound 50]
10: Plant response rating, Cupgrass, Woolly (woolly cupgrass; [3]) | Plant response rating, Rice (rice; [14]) | Plant response rating, Surinam Grass (Surinam grass; [3]) | Plant response rating, Surinam Grass (Surinam grass; [13])
30: Plant response rating, Cupgrass, Woolly (woolly cupgrass; [8]) | Plant response rating, Goosegrass (goosegrass; [10]) | Plant response rating, Goosegrass (goosegrass; [13])
0: Plant response rating (0 = no effect, 100 = complete control), Cupgrass, Woolly (woolly cupgrass; 62 g ai/ha, preemergence) | Cupgrass, Woolly plant response rating (woolly cupgrass; [9]) | Plant response rating, Cupgrass, Woolly (woolly cupgrass; [10]) | Plant response rating, Cupgrass, Woolly (woolly cupgrass; [11]) | Plant response rating, Cupgrass, Woolly (woolly cupgrass; [13]) | Plant response rating (0 = no effect, 100 = complete control), Surinam Grass (Surinam grass; 62 g ai/ha, preemergence) | Plant response rating (0 = no effect, 100 = complete control), Johnsongrass (johnsongrass; 62 g ai/ha, preemergence) | Plant response rating, Johnsongrass (johnsongrass; [8]) | Johnsongrass plant response rating (johnsongrass; [9]) | Plant response rating, Johnsongrass (johnsongrass; [10]) | Plant response rating, Johnsongrass (johnsongrass; [11]) | Johnsongrass plant response rating (johnsongrass; [12]) | Plant response rating, Johnsongrass (johnsongrass; [13]) | Plant response rating (0 = no effect, 100 = complete control), Nightshade (eastern black nightshade; 62 g ai/ha, preemergence) | Plant response rating (0 = no effect, 100 = complete control), Sunflower ([1]; 62 g ai/ha, preemergence) | Plant response rating, Sunflower [1, 3] | Plant response rating, Sunflower [1, 8] | Sunflower plant response rating ([1]; 500 g ai/ha) | Plant response rating (0 = no effect, 100 = complete control), Soybean (soybean; 62 g ai/ha, preemergence) | Plant response rating, Soybean (soybean; [3]) | Plant response rating, Soybean (soybean; [8]) | Soybean plant response rating (soybean; [12])
100: Plant response rating, Goosegrass (goosegrass; [8]) | Goosegrass plant response rating (goosegrass; [15]) | Soybean plant response rating (soybean; [9]) | Plant response rating, Soybean (soybean; [11]) | Plant response rating, Soybean (soybean; [13])
70: Cupgrass, Woolly plant response rating (woolly cupgrass; [12])
95: Nightshade plant response rating (eastern black nightshade; 500 g ai/ha)
90: Plant response rating, Goosegrass (goosegrass; [11])
85: Surinam Grass plant response rating (Surinam grass; [15])
5: Plant response rating, Nightshade (eastern black nightshade; [3])
40: Plant response rating (0 = no effect, 100 = complete control), Goosegrass (goosegrass; 62 g ai/ha, preemergence)
80: Plant response rating, Surinam Grass (Surinam grass; [8]) | Plant response rating, Nightshade (eastern black nightshade; [8]) | Plant response rating, Goosegrass (goosegrass; [3])
50: Rice plant response rating (rice; Preemergence, 500 g ai/ha, scale 0 to 100) | Plant response rating, Surinam Grass (Surinam grass; [11])

CCn1nc(C(C)(C)C)cc1C(=O)Nc1cccc(C(N)=O)n1 [Compound 162, 6-[[[3-(1,1-dimethylethyl)-1-ethyl-1H-pyrazol-5-yl]carbonyl]amino]-2-pyridinecarboxamide]
15: Plant response rating, Sunflower [1, 3] | Plant response rating, Soybean (soybean; [2])
100: Cupgrass, Woolly plant response rating (woolly cupgrass; [12]) | Plant response rating, Nightshade (eastern black nightshade; [3]) | Nightshade plant response rating (eastern black nightshade; 500 g ai/ha) | Soybean plant response rating (soybean; [12])
60: Plant response rating, Goosegrass (goosegrass; [2]) | Plant response rating, Goosegrass (goosegrass; [3])
90: Plant response rating, Rice (rice; 500 g ai/ha, visual rating 0-100, 0 no effect, 100 complete control) | Plant response rating, Rice (rice; [14]) | Sunflower plant response rating ([1]; 500 g ai/ha)
75: Plant response rating, Surinam Grass (Surinam grass; [3]) | Plant response rating, Soybean (soybean; [3])
0: Plant response rating, Cupgrass, Woolly (woolly cupgrass; [2]) | Plant response rating, Cupgrass, Woolly (woolly cupgrass; [3]) | Plant response rating, Cupgrass, Woolly (woolly cupgrass; [8]) | Plant response rating, Surinam Grass (Surinam grass; [2]) | Plant response rating, Sunflower [1, 2]
65: Plant response rating, Johnsongrass (johnsongrass; [2])
80: Plant response rating, Johnsongrass (johnsongrass; [3]) | Plant response rating, Nightshade (eastern black nightshade; [2]) | Goosegrass plant response rating (goosegrass; [15])
95: Surinam Grass plant response rating (Surinam grass; [15]) | Johnsongrass plant response rating (johnsongrass; [12])

CCn1nc(C2(C)CC2)cc1C(=O)Nc1cc(C(=O)N(C)C)ccc1F [Compound 299]
75: Plant response rating, Surinam Grass (Surinam grass; [2])
50: Plant response rating, Cupgrass, Woolly (woolly cupgrass; [2])
10: Plant response rating, Sunflower [1, 2]
85: Plant response rating, Johnsongrass (johnsongrass; [2])
90: Plant response rating, Cupgrass, Woolly (woolly cupgrass; [4]) | Plant response rating, Rice (rice; [7]) | Plant response rating, Soybean (soybean; [4])
55: Plant response rating, Soybean (soybean; [2])
70: Plant response rating, Cupgrass, Woolly (woolly cupgrass; [3])
80: Rice plant response rating (0 to 100 scale) (rice; [6])
100: Plant response rating, Cupgrass, Woolly (woolly cupgrass; [5]) | Plant response rating, Surinam Grass (Surinam grass; [4]) | Plant response rating, Surinam Grass (Surinam grass; [5]) | Plant response rating, Johnsongrass (johnsongrass; [3]) | Plant response rating, Johnsongrass (johnsongrass; [4]) | Plant response rating, Johnsongrass (johnsongrass; [5]) | Plant response rating, Nightshade (eastern black nightshade; [2]) | Plant response rating, Nightshade (eastern black nightshade; [3]) | Plant response rating, Nightshade (eastern black nightshade; [4]) | Plant response rating, Nightshade (eastern black nightshade; [5]) | Plant response rating, Goosegrass (goosegrass; [2]) | Plant response rating, Goosegrass (goosegrass; [3]) | Plant response rating, Goosegrass (goosegrass; [4]) | Plant response rating, Goosegrass (goosegrass; [5]) | Plant response rating, Sunflower [1, 4] | Plant response rating, Sunflower [1, 5]
95: Plant response rating, Soybean (soybean; [5])
